In PubChem BioAssay (NCI):
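Results reflect a 48-hour exposure of cells in 96-well plates to compound at five concentrations. At the GI50, growth is halved. TGI denotes the concentration required for complete inhibition of growth.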

Key:
Test in all cases: growth of human tumour cells (NCI), 48 h
786-0 renal = system: 786-0 renal
A498 renal = system: A498 renal
A549 NSCLC = system: A549 NSCLC
ACHN renal = system: ACHN renal
BT-549 breast = system: BT-549 breast
CAKI-1 renal = system: CAKI-1 renal
CCRF-CEM leukemia = system: CCRF-CEM leukemia
COLO 205 colon = system: COLO 205 colon
DU-145 prostate = system: DU-145 prostate
EKVX NSCLC = system: EKVX NSCLC
HCT-116 colon = system: HCT-116 colon
HCT-15 colon = system: HCT-15 colon
HL-60(TB) leukemia = system: HL-60(TB) leukemia
HOP-62 NSCLC = system: HOP-62 NSCLC
HOP-92 NSCLC = system: HOP-92 NSCLC
HS 578T breast = system: HS 578T breast
HT29 colon = system: HT29 colon
IGROV1 ovarian = system: IGROV1 ovarian
K-562 leukemia = system: K-562 leukemia
KM12 colon = system: KM12 colon
LOX IMVI melanoma = system: LOX IMVI melanoma
M14 melanoma = system: M14 melanoma
MALME-3M melanoma = system: MALME-3M melanoma
MCF7 breast = system: MCF7 breast
MDA-MB-231 breast = system: MDA-MB-231 breast
MDA-MB-435 = system: MDA-MB-435
MOLT-4 leukemia = system: MOLT-4 leukemia
NCI-H226 lung = system: NCI-H226 lung
NCI-H23 lung = system: NCI-H23 lung
NCI-H460 lung = system: NCI-H460 lung
NCI-H522 lung = system: NCI-H522 lung
NCI/ADR-RES ovarian = system: NCI/ADR-RES ovarian
OVCAR-3 ovarian = system: OVCAR-3 ovarian
OVCAR-4 ovarian = system: OVCAR-4 ovarian
OVCAR-5 ovarian = system: OVCAR-5 ovarian
OVCAR-8 ovarian = system: OVCAR-8 ovarian
PC-3 prostate = system: PC-3 prostate
RPMI-8226 leukemia = system: RPMI-8226 leukemia
RXF 393 renal = system: RXF 393 renal
SF-268 CNS = system: SF-268 CNS
SF-295 CNS = system: SF-295 CNS
SF-539 CNS = system: SF-539 CNS
SK-MEL-2 melanoma = system: SK-MEL-2 melanoma
SK-MEL-28 melanoma = system: SK-MEL-28 melanoma
SK-MEL-5 melanoma = system: SK-MEL-5 melanoma
SK-OV-3 ovarian = system: SK-OV-3 ovarian
SN12C renal = system: SN12C renal
SNB-19 CNS = system: SNB-19 CNS
SNB-75 CNS = system: SNB-75 CNS
SR leukemia = system: SR leukemia
SW-620 colon = system: SW-620 colon
T-47D breast = system: T-47D breast
TK-10 renal = system: TK-10 renal
U251 CNS = system: U251 CNS
UACC-257 melanoma = system: UACC-257 melanoma
UACC-62 melanoma = system: UACC-62 melanoma
UO-31 renal = system: UO-31 renal

## O=c1oc(-c2ccccc2)cc2cccc(O)c12
786-0 renal
  GI50: 28.7 µM
  TGI: > 76.9 µM
A498 renal
  GI50: 21 µM
  TGI: 48 µM
A549 NSCLC
  GI50: 24.7 µM
  TGI: > 64.6 µM
ACHN renal
  GI50: 25.9 µM
  TGI: > 73.1 µM
BT-549 breast
  GI50: 17.5 µM
  TGI: 59.1 µM
CAKI-1 renal
  GI50: 37.3 µM
  TGI: > 81.7 µM
CCRF-CEM leukemia
  GI50: > 100 µM
  TGI: > 100 µM
COLO 205 colon
  GI50: > 100 µM
  TGI: > 100 µM
DU-145 prostate
  GI50: > 48.7 µM
  TGI: > 100 µM
EKVX NSCLC
  GI50: 4.22 µM
  TGI: > 40.6 µM
HCT-116 colon
  GI50: 19.8 µM
  TGI: 45.2 µM
HCT-15 colon
  GI50: 19.6 µM
  TGI: > 100 µM
HL-60(TB) leukemia
  GI50: 63.5 µM
  TGI: > 100 µM
HOP-62 NSCLC
  GI50: 19.5 µM
  TGI: 40.9 µM
HOP-92 NSCLC
  GI50: 16.8 µM
  TGI: 61.6 µM
HS 578T breast
  GI50: 23.8 µM
  TGI: 54.7 µM
HT29 colon
  GI50: > 56.9 µM
  TGI: > 100 µM
IGROV1 ovarian
  GI50: 23 µM
  TGI: > 100 µM
K-562 leukemia
  GI50: > 67.3 µM
  TGI: > 100 µM
KM12 colon
  GI50: 20.8 µM
  TGI: > 69.3 µM
LOX IMVI melanoma
  GI50: 29.7 µM
  TGI: > 100 µM
M14 melanoma
  GI50: > 80.9 µM
  TGI: > 100 µM
MALME-3M melanoma
  GI50: 69.4 µM
  TGI: > 100 µM
MCF7 breast
  GI50: > 28 µM
  TGI: > 100 µM
MDA-MB-231 breast
  GI50: 29.2 µM
  TGI: > 85.7 µM
MDA-MB-435
  GI50: 69 µM
  TGI: > 100 µM
MOLT-4 leukemia
  GI50: 66.3 µM
  TGI: > 100 µM
NCI-H226 lung
  GI50: 19.4 µM
  TGI: 51 µM
NCI-H23 lung
  GI50: 19.6 µM
  TGI: 61.5 µM
NCI-H460 lung
  GI50: 29 µM
  TGI: > 100 µM
NCI-H522 lung
  GI50: 49.9 µM
  TGI: > 100 µM
NCI/ADR-RES ovarian
  GI50: 33.3 µM
  TGI: > 74.3 µM
OVCAR-3 ovarian
  GI50: 25.2 µM
  TGI: 85.8 µM
OVCAR-4 ovarian
  GI50: > 100 µM
  TGI: > 100 µM
OVCAR-5 ovarian
  GI50: 55.3 µM
  TGI: > 100 µM
OVCAR-8 ovarian
  GI50: 23.9 µM
  TGI: 52.4 µM
PC-3 prostate
  GI50: 40.6 µM
  TGI: > 100 µM
RPMI-8226 leukemia
  GI50: 34 µM
  TGI: > 100 µM
RXF 393 renal
  GI50: 24.8 µM
  TGI: > 70.9 µM
SF-268 CNS
  GI50: 30.1 µM
  TGI: > 89.9 µM
SF-295 CNS
  GI50: 28.3 µM
  TGI: > 83.9 µM
SF-539 CNS
  GI50: 0.927 µM
  TGI: 5.21 µM
SK-MEL-2 melanoma
  GI50: > 100 µM
  TGI: > 100 µM
SK-MEL-28 melanoma
  GI50: > 100 µM
  TGI: > 100 µM
SK-MEL-5 melanoma
  GI50: 24 µM
  TGI: > 100 µM
SK-OV-3 ovarian
  GI50: 26.8 µM
  TGI: 68.6 µM
SN12C renal
  GI50: 19.4 µM
  TGI: 51.2 µM
SNB-19 CNS
  GI50: 30.6 µM
  TGI: > 100 µM
SNB-75 CNS
  GI50: 24.4 µM
  TGI: > 62.6 µM
SR leukemia
  GI50: 43.5 µM
  TGI: > 100 µM
SW-620 colon
  GI50: 58 µM
  TGI: > 100 µM
T-47D breast
  GI50: 13.6 µM
  TGI: > 100 µM
TK-10 renal
  GI50: 9.45 µM
  TGI: 39.8 µM
U251 CNS
  GI50: 18 µM
  TGI: 35.1 µM
UACC-257 melanoma
  GI50: > 71.9 µM
  TGI: > 100 µM
UACC-62 melanoma
  GI50: 24.5 µM
  TGI: > 64.3 µM
UO-31 renal
  GI50: 72 µM
  TGI: > 100 µM
